Legend:
expert panel members = experiment: Sucrose Equivalent Value (SEV), perceived sweetness matched to stock sucrose solutions; assay type: in vivo; conditions: for effect on sweetness of sucrose solution (dose response curve): 0 to 1000 ppm in pH 3.2 buffered 5% sucrose solution; for effect on sweetness (SEV) of sucrose solutions, comparison of forms: 500 ppm in pH 3.2 buffered solutions with 0%, 3%, 5%, 7% and 9% sucrose; for SEV (%): 500 ppm potentiator alone in pH 3.2 buffered 5% sucrose solution
Method: One method of measuring the perceived sweetness of a solution is to match it with a stock sucrose solution of known concentration. In the present experiments, the compound of interest is added at a predetermined concentration to a pH 3.2 buffered solution containing 5% sucrose. A number of expert panel members then taste the solution and compare it to a battery of stock sucrose solutions ranging from 3% to 15% at increments of 1%. Each panel member decides which sucrose solution is equisweet with the solution containing the compound of interest. The mean value is then reported as the SEV. Results are reported to 1 decimal place.
In accordance with this methodology, 3-HB was added to a pH 3.2 buffered solution containing 5% sucrose to produce solutions containing from 0 to 1000 ppm 3-HB in 100 ppm increments. […] From FIG. 1 it is apparent that as the dosage of 3-HB increases so does the sweetness of the resultant solution. However the effect is non-linear with each incremental addition having a diminishing effect. The maximum sweetness attainable would appear to be about 7.9% SEV (based on a 5% sucrose solution).
The same methodology as described in Example 7 was repeated with 2,4-DHB in place of 3-HB, to produce the dose response curve for 2,4-DHB (FIG. 2). […] The maximum attainable sweetness would appear to be about 6.7% SEV (based on a 5% sucrose solution).
500 ppm of a sweetener potentiator was added to a pH 3.2 buffered solution containing 5% sucrose and the SEV of the resultant solution determined.
500 ppm of the sweetener potentiator then was added to a 5% sucrose solution containing 500 ppm 3-HB to produce a series of solutions. […] The use of 500 ppm of 3-HB alone results in an SEV of 6.9% whereas in all cases but two (2,4-DHB and 3,4-DHB) the addition of a second sweetener potentiator results in a little change or even a decrease in SEV. This is highly surprising considering that all of the potentiators are shown to have SEVs greater than 5%.
The methodology was repeated to produce a series of solutions containing 500 ppm 2,4-DHB and 500 ppm of a second sweetener potentiator.
500 ppm of 3-HB, 500 ppm of 2,4-DHB and 500 ppm of 3,4-dihydroxybenzoic acid (3,4-DHB) were added to a pH 3.2 buffered solution containing 5% sucrose and the SEV determined. The results are shown in FIG. 7 together with other combinations of 3-HB, 2,4-DHB and 3,4-DHB for comparison. The solution containing the combination of 3-HB and 2,4-DHB (hatched) has a much higher SEV (8.7%) than the combination of either 3,4-DHB and 3-HB (7.6%) or the combination of 3,4-DHB and 2,4-DHB (6.8%). The three-way combination of the embodiment (hatched) is better still with an SEV of 9.8%.
pH 3.2 buffered solutions were prepared containing 0%, 3%, 5%, 7% and 9% sucrose. 500 ppm of 2,4-DHB acid, 500 ppm of the sodium salt of 2,4-DHB and 500 ppm of the potassium salt of 2,4-DHB were added individually to each of the sucrose solutions. The SEV for each of the solutions was then determined.
The SEV of each sweetener solution was then evaluated after the addition 500 ppm of 3-HB, the addition of 500 ppm of 2,4-DHB and the addition of both 500 ppm 3-HB and 2,4-DHB.
500 ppm of 3-aminobenzoic acid and 500 ppm of 4-aminobenzoic acid were individually added to separate pH 3.2 buffered solutions containing 5% sucrose and the SEVs of the resultant solutions were determined. The SEV of 3-aminobenzoic acid was about 7%, i.e., increased the sweetness intensity of 5% sucrose to about 7%. The SEV of 4-aminobenzoic acid was about 5.5-6%, i.e., increased the sweetness intensity of 5% sucrose to about 5.5-6%.

[1] = cited from earlier work

Structure (SMILES)	effect on sweetness of sucrose solution (dose response curve) (expert panel members)	effect on sweetness (SEV) of sucrose solutions, comparison of forms (expert panel members)	SEV (%) (expert panel members)	further results
O=C(O)c1ccc(O)cc1O [2,4-DHB, 2,4-dihydroxybenzoic acid]	enhances the sweetness of the sucrose solution	enhances the sweetness of the sucrose solution in every case	–	effect on sweetness of 5% sucrose solution ([1]; 0.2% 2,4-DHB, Canadian Patent No. 1208966): increase in sweetness; effect on sweetness intensity of sucralose and aspartame ([1]; FIGS. 1 and 2 and Tables 1 and 2 of U.S. Pat. No. 6,461,658): slightly inhibitory effect; effect on sweetness delivery profile of sucralose ([1]; U.S. Pat. No. 6,461,658): significantly reducing the length of time during which sucralose sweetness is perceived; effect on sweetness with aspartame ([1]; WO99/15032): increase sweetness synergistically
O=C(O)c1cc(O)c(O)c(O)c1 [3,4,5-THB, 3,4,5-tryhydroxybenzoic acid]	–	–	5.1%	–
O=C(O)c1ccc(O)c(O)c1 [3,4-DHB, 3,4-dihydroxybenzoic acid]	–	–	6.4%	–
O=C(O)c1cccc(O)c1 [3-HB, 3-hydroxybenzoic acid]	enhances the sweetness of the sucrose solution	–	–	effect on sweetness of saccharin solution (expert panel members; 500 ppm, pH 3.2 saccharin solution of SEV about 5%): enhances the sweetness to a greater degree alone than in combination with 2,4-DHB
O=C([O-])c1ccc(O)cc1O.[K+] [potassium salt of 2,4-DHB]	–	enhances the sweetness of the sucrose solution in every case	–	–
O=C([O-])c1ccc(O)cc1O.[Na+] [sodium salt of 2,4-DHB]	–	enhances the sweetness of the sucrose solution in every case	–	–

Source: patent US7851000B2, “Taste potentiator compositions and edible confectionery and chewing gum products containing same” (Cadbury Adams USA LLC, priority 2005, dated 2010)
